Experimental data from US6451808B1 (DepoMed, Inc., priority 2000, dated 2002).

System: adult beagle dogs
Experiment: Metformin-induced retrograde giant contractions (RGCs) and vomiting in beagle dogs, with or without intravenous ondansetron
Type: in vivo, dog
Experimental: Contractions of the smooth muscle of the gastrointestinal tracts of the dogs were monitored with strain gauge force transducers to permit detection of retrograde giant contractions (RGCs). The times at which either RGCs or vomiting occurred were recorded. Vomiting is always preceded by RGCs, while RGCs may also occur without vomiting and are generally thought to be an indication of nausea.

SMILES: Cc1nccn1CC1CCc2c(c3ccccc3n2C)C1=O (stereo not shown) [Ondansetron, 1,2,3 ,9-Tetrahydro-9-methyl-3-[(2-methyl1-H-imidazole-1-yl)methyl]-4H-carbazol-4-one]
- Time at which one RGC and vomit occurred after metformin administration (Dog A, Test 2, ondansetron 0.15 mg/kg i.v. 15 min before metformin 25 mg/kg): 179 minutes after metformin
- Observations (RGCs, vomiting) (Dog A, Test 3, ondansetron 0.15 mg/kg i.v. 15 min before metformin 25 mg/kg): no RGCs or vomiting occurred
- Observations (RGCs, vomiting) (Dog B, Tests 3 and 4, ondansetron 0.15 mg/kg i.v. 15 min before metformin 50 mg/kg): no RGCs or vomiting occurred
- Suppression of the emetic effects of a metformin dosage (overall conclusion from the dog tests): effective in suppressing the emetic effects
